Laboratory results published in the supplement of paper PMC10307832.

Columns and labels:
Experiment in all cases: relative viability (nuclei count vs DMSO), 5 days (fraction); higher = more cells survive
Dabrafenib + Crizotinib = compound: CC(C)(C)c1nc(-c2cccc(NS(=O)(=O)c3c(F)cccc3F)c2F)c(-c2ccnc(N)n2)s1 [Dabrafenib] + C[C@@H](Oc1cc(-c2cnn(C3CCNCC3)c2)cnc1N)c1c(Cl)ccc(F)c1Cl [Crizotinib] (partner 1 µM)
Outline: (§1)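 Lung cancer cell lines in 1536-well plates got either a single drug or a fixed anchor-drug dose together with five library-drug doses (not always all listed) in √10 steps, by pin tool, on the day after seeding. Nuclei were counted after 5 days, and relative viability is the treated-to-vehicle ratio of nuclei counts. Values are medians of duplicate plates.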

VX-702 + Dasatinib = compound: NC(=O)c1ccc(N(C(N)=O)c2c(F)cccc2F)nc1-c1ccc(F)cc1F [VX-702] + Cc1nc(Nc2ncc(C(=O)Nc3c(C)cccc3Cl)s2)cc(N2CCN(CCO)CC2)n1 [Dasatinib] (partner 0.075 µM)
Outline: as §1

VX-702 + Navitoclax = compound: NC(=O)c1ccc(N(C(N)=O)c2c(F)cccc2F)nc1-c1ccc(F)cc1F [VX-702] + CC1(C)CCC(c2ccc(Cl)cc2)=C(CN2CCN(c3ccc(C(=O)NS(=O)(=O)c4ccc(N[C@H](CCN5CCOCC5)CSc5ccccc5)c(S(=O)(=O)C(F)(F)F)c4)cc3)CC2)C1 [Navitoclax] (partner 0.5 µM)
Outline: as §1

VX-702 + Luminespib = compound: NC(=O)c1ccc(N(C(N)=O)c2c(F)cccc2F)nc1-c1ccc(F)cc1F [VX-702] + CCNC(=O)c1noc(-c2cc(C(C)C)c(O)cc2O)c1-c1ccc(CN2CCOCC2)cc1 [Luminespib] (partner 0.01 µM)
Outline: as §1

| Cell Line | relative viability (Dabrafenib + Crizotinib; first compound 0.003 µM) | relative viability (Dabrafenib + Crizotinib; first compound 0.009487 µM) | relative viability (Dabrafenib + Crizotinib; first compound 0.03 µM) | relative viability (Dabrafenib + Crizotinib; first compound 0.09487 µM) | relative viability (Dabrafenib + Crizotinib; first compound 0.3 µM) | relative viability (VX-702 + Dasatinib; first compound 0.02 µM) | relative viability (VX-702 + Dasatinib; first compound 0.2 µM) | relative viability (VX-702 + Dasatinib; first compound 0.6325 µM) | relative viability (VX-702 + Dasatinib; first compound 2 µM) | relative viability (VX-702 + Navitoclax; first compound 0.02 µM) | relative viability (VX-702 + Navitoclax; first compound 0.2 µM) | relative viability (VX-702 + Navitoclax; first compound 0.6325 µM) | relative viability (VX-702 + Navitoclax; first compound 2 µM) | relative viability (VX-702 + Luminespib; first compound 0.02 µM) | relative viability (VX-702 + Luminespib; first compound 0.2 µM) | relative viability (VX-702 + Luminespib; first compound 0.6325 µM) | relative viability (VX-702 + Luminespib; first compound 2 µM) |
| --- | --- | --- | --- | --- | --- | --- | --- | --- | --- | --- | --- | --- | --- | --- | --- | --- | --- |
| SK-MES-1 | 0.919 | 0.985 | 1.04 | 0.912 | 0.962 | 0.374 | 0.389 | 0.342 | 0.398 | 1.24 | 1.12 | 1.22 | 1.44 | 0.839 | 0.711 | 0.673 | 0.822 |
| NCI-H1755 | 0.896 | 0.89 | 0.648 | 0.824 | 0.884 | 0.44 | 0.432 | 0.367 | 0.415 | 1.08 | 0.971 | 1.05 | 1.04 | 0.432 | 0.498 | 0.315 | 0.476 |
| NCI-H1651 | 0.85 | 0.875 | 0.859 | 0.785 | 0.786 | 0.395 | 0.456 | 0.359 | 0.544 | 0.933 | 0.96 | 0.982 | 1.27 | 0.979 | 0.891 | 0.921 | 1.08 |
| NCI-H23 |  | 0.603 | 0.541 | 0.421 | 0.495 | 0.834 | 0.896 | 1.02 | 0.674 | 0.701 | 0.798 | 0.805 | 0.933 | 0.196 | 0.189 | 0.274 | 0.215 |
| NCI-H2009 | 0.973 | 1.01 | 1.02 | 0.697 | 0.662 | 0.35 | 0.401 | 0.429 | 0.452 | 1.18 | 1.2 | 1.25 | 1.47 | 1.13 | 1.07 | 1.19 | 1.3 |
| LC-2-ad | 0.42 | 0.398 | 0.389 | 0.426 | 0.447 | 0.724 | 0.581 | 0.619 | 0.901 | 0.467 | 0.565 | 0.475 | 0.561 | 0.979 | 1.01 | 1.01 | 1.36 |
| UMC-11 | 0.772 | 0.636 | 0.591 | 0.572 | 0.596 | 0.456 | 0.379 | 0.386 | 0.492 | 0.274 | 0.293 | 0.303 | 0.359 | 0.993 | 0.865 | 0.805 | 1.11 |
| PC-3 [JPC-3] | 0.95 | 1.03 | 0.978 | 1.02 | 1 | 1.03 | 1.05 | 1.07 | 1.06 | 0.756 | 0.846 | 0.844 | 0.853 | 0.636 | 0.695 | 0.686 | 0.668 |
| NCI-H596 | 1.48 | 1.06 | 0.86 | 0.954 | 0.932 | 0.672 | 0.579 | 0.56 | 0.57 | 0.959 | 0.946 | 0.881 | 0.994 | 1.05 | 1.1 | 1.01 | 1.11 |
| NCI-H441 |  | 0.746 | 0.694 | 0.593 | 0.697 | 0.633 | 0.565 | 0.627 | 0.697 | 0.705 | 0.632 | 0.511 | 0.871 | 0.368 | 0.326 | 0.271 | 0.411 |
| LOU-NH91 |  | 0.759 | 0.717 | 0.672 | 0.757 | 0.572 | 0.553 | 0.576 | 0.364 | 0.638 | 0.638 | 0.643 | 0.422 | 0.355 | 0.3 | 0.346 | 0.292 |
| NCI-H727 |  | 1.01 | 0.791 | 0.909 | 0.84 | 0.372 | 0.359 | 0.295 | 0.396 | 0.439 | 0.508 | 0.498 | 0.445 | 0.306 | 0.345 | 0.296 | 0.294 |
| NCI-H2126 | 1.01 | 1.02 | 0.986 | 1.01 | 1.01 | 0.637 | 0.542 | 0.549 | 0.573 | 0.832 | 0.814 | 0.779 | 0.698 | 0.879 | 0.918 | 0.834 | 0.918 |
| LCLC-97TM1 |  | 0.325 | 0.406 |  | 0.287 | 0.971 | 0.803 | 0.817 | 1.01 | 0.379 | 0.458 | 0.344 | 0.489 | 0.613 | 0.768 | 0.747 | 0.743 |
| NCI-H460 | 0.865 | 0.97 | 0.892 | 0.842 | 0.899 | 0.547 | 0.471 | 0.534 | 0.408 | 1.15 | 1.03 | 1.08 | 1.37 | 0.0333 | 0.0359 | 0.0358 | 0.0313 |
| NCI-H1650 | 1.04 | 1.21 | 0.907 | 0.995 | 1.11 | 0.385 | 0.346 | 0.334 | 0.265 | 1.1 | 1.16 | 1.43 | 1.31 | 0.19 | 0.193 | 0.216 | 0.226 |
| NCI-H1993 | 0.86 | 0.946 | 0.826 | 0.929 | 1.06 | 0.512 | 0.611 | 0.615 | 0.59 | 0.805 | 0.874 | 0.896 | 0.835 | 0.645 | 0.741 | 0.777 | 0.818 |
| LXF-289 | 0.802 | 0.833 | 0.892 | 0.804 | 0.883 | 0.234 | 0.199 | 0.212 | 0.225 | 1 | 0.957 | 0.935 | 0.961 | 0.689 | 0.732 | 0.659 | 0.789 |
| 201T | 1.04 | 1.01 | 0.939 | 1.03 | 1.03 | 0.578 | 0.542 | 0.587 | 0.576 | 1.17 | 1.22 | 1.23 | 1.24 | 1 | 1.04 | 0.992 | 1.07 |
